Common to all, as to conditions: stereoisomer not certain
A short description of data set [1]: RP, Waters CORTECS T3, 100 × 2.1 mm, 2.7 µm, 0.2 mL/min, estimated dead time 1.1 min; A: water + 0.1% formic acid, pH 3; B: methanol + 0.1% formic acid, pH 3; gradient (min/%B) 0/5 5/5 25/95 25.1/100 35/100 35.1/5 45/5.
The nature of data set [2]: RP, Thermo Scientific Hypercarb, 150 × 2.1 mm, 5 µm, 0.1 mL/min, estimated dead time 3.3 min; A: water + 0.1% formic acid, pH 3; B: methanol + 0.1% formic acid, pH 3; gradient (min/%B) 0/5 5/5 20/100 35/100 35.1/5 45/5.
Data set [3] in a line: RP, Waters ACQUITY UPLC BEH C18, 100 × 2.1 mm, 1.7 µm, 0.2 mL/min, estimated dead time 1.1 min; A: water + 0.025% formic acid + 20 mM ammonium acetate + 0.055% ammonium hydroxide, pH 7; B: methanol; gradient (min/%B) 0/5 5/5 25/100 30/100 30.1/5 35/5.
Data set [4] is described as follows: HILIC, Merck SeQuant ZIC-HILIC, 150 × 2.1 mm, 5 µm, 0.75 mL/min, estimated dead time 0.44 min; A: water + 10 mM ammonium formate, pH 6; B: 5% water + 95% acetonitrile + 10 mM ammonium formate, pH 6; gradient (min/%B) 0/95 5/95 20/57 25/57 30/95 40/95.
Data set [5] can be described thus: HILIC, Merck SeQuant ZIC-HILIC, 150 × 2.1 mm, 5 µm, 0.75 mL/min, estimated dead time 0.44 min; A: water + 0.1% acetic acid + 10 mM ammonium acetate, pH 4; B: 5% water + 95% acetonitrile + 0.1% acetic acid + 10 mM ammonium acetate, pH 4; gradient (min/%B) 0/95 5/95 20/57 25/57 30/95 40/95.
Data set [6] can be described thus: HILIC, Waters XBridge BEH Amide, 100 × 2.1 mm, 2.5 µm, 0.5 mL/min, estimated dead time 0.44 min; A: water + 0.1% acetic acid + 10 mM ammonium acetate, pH 4; B: 5% water + 95% acetonitrile + 0.1% acetic acid + 10 mM ammonium acetate, pH 4; gradient (min/%B) 0/95 5/95 20/57 25/57 30/95 40/95.
A short description of data set [7]: HILIC, Thermo Scientific Accucore HILIC, 100 × 2.1 mm, 2.6 µm, 0.5 mL/min, estimated dead time 0.44 min; A: water + 0.1% formic acid + 10 mM ammonium formate, pH 3; B: 5% water + 95% acetonitrile + 0.1% formic acid + 10 mM ammonium formate, pH 3; gradient (min/%B) 0/95 5/95 20/57 25/57 30/95 40/95.

Each structure is given as a SMILES string.

The text below walks through data of the RepoRT retention time repository (doi:10.1016/j.jchromb.2020.122105).

With `NCCC(=O)NC(Cc1cnc[nH]1)C(=O)O` (configuration not stated) [CARNOSINE], the LC retention time in data set [1] is 2.43 min; in data set [2], 4.86 min; in data set [3], 1.36 min; in data set [4], 15.9 min; in data set [5] it was 16.3 min; in data set [6], 15 min. Besides, in data set [7], the LC retention time was 15.4 min.
